Experimental data: ChEMBL document CHEMBL5126659, “Antiasthmatic Compounds Targeting β2-Adrenergic Receptor from Perilla frutescens Improved Lung Inflammation by Inhibiting the NF-κB Signaling Pathway” (J Nat Prod, 2022)
Calls of active or inactive are those of the source.

Experiments:
Type in all cases: functional, organism-based
Rattus norvegicus [1] = test: Anti-asthmatic activity against ovalbumin-induced asthmatic Sprague-Dawley rat model assessed as reduction in total IgE level in serum at 4.5 to 18 mg/kg, po for 7 days by ELISA; details: dose 4.5-18 mg/kg, time 7.0 day
Rattus norvegicus [2] = test: Anti-asthmatic activity against ovalbumin-induced asthmatic Sprague-Dawley rat model assessed as reduction in OVA specific IgE level in serum at 4.5 to 18 mg/kg, po for 7 days by ELISA; details: dose 4.5-18 mg/kg, time 7.0 day
Rattus norvegicus [3] = test: Anti-asthmatic activity against ovalbumin-induced asthmatic Sprague-Dawley rat model assessed as reduction in total IgE level in BALF at 4.5 to 18 mg/kg, po for 7 days by ELISA; details: dose 4.5-18 mg/kg, time 7.0 day
Rattus norvegicus [4] = test: Anti-asthmatic activity against ovalbumin-induced asthmatic Sprague-Dawley rat model assessed as reduction in OVA specific IgE level in BALF at 4.5 to 18 mg/kg, po for 7 days by ELISA; details: dose 4.5-18 mg/kg, time 7.0 day
Rattus norvegicus [5] = test: Anti-asthmatic activity against ovalbumin-induced asthmatic Sprague-Dawley rat model assessed as reduction in OVA specific IgE level in serum at 4.5 to 9 mg/kg, po for 7 days by ELISA; details: dose 4.5-9 mg/kg, time 7.0 day, DDE = dose-dependent effect
Rattus norvegicus [6] = test: Anti-asthmatic activity against ovalbumin-induced asthmatic Sprague-Dawley rat model assessed as reduction in OVA specific IgE level in BALF at 4.5 to 9 mg/kg, po for 7 days by ELISA; details: dose 4.5-9 mg/kg, time 7.0 day, DDE = dose-dependent effect
Rattus norvegicus [7] = test: Anti-asthmatic activity against ovalbumin-induced asthmatic Sprague-Dawley rat model assessed as reduction in eotaxin level in BALF at 4.5 to 18 mg/kg, po for 7 days by ELISA; details: dose 4.5-18 mg/kg, time 7.0 day
Rattus norvegicus [8] = test: Anti-asthmatic activity against ovalbumin-induced asthmatic Sprague-Dawley rat model assessed as reduction in IL-4 cytokine level in BALF at 4.5 to 18 mg/kg, po for 7 days by ELISA; details: dose 4.5-18 mg/kg, time 7.0 day
Rattus norvegicus [9] = test: Anti-asthmatic activity against ovalbumin-induced asthmatic Sprague-Dawley rat model assessed as reduction in IL-5 cytokine level in BALF at 4.5 to 18 mg/kg, po for 7 days by ELISA; details: dose 4.5-18 mg/kg, time 7.0 day
Rattus norvegicus [10] = test: Anti-asthmatic activity against ovalbumin-induced asthmatic Sprague-Dawley rat model assessed as reduction in IL-13 cytokine level in BALF at 4.5 to 18 mg/kg, po for 7 days by ELISA; details: dose 4.5-18 mg/kg, time 7.0 day
Rattus norvegicus [11] = test: Anti-asthmatic activity against ovalbumin-induced asthmatic Sprague-Dawley rat model assessed as reduction in inflammatory cell infiltration in lungs at 4.5 to 18 mg/kg, po for 7 days by H and E staining based microscopic analysis; details: dose 4.5-18 mg/kg, time 7.0 day
Rattus norvegicus [12] = test: Anti-asthmatic activity against ovalbumin-induced asthmatic Sprague-Dawley rat model assessed as reduction in airway epithelial thickening in lungs at 4.5 to 18 mg/kg, po for 7 days by H and E staining based microscopic analysis; details: dose 4.5-18 mg/kg, time 7.0 day
Rattus norvegicus [13] = test: Anti-asthmatic activity against ovalbumin-induced asthmatic Sprague-Dawley rat model assessed as reduction in NFkappaB protein expression in lungs at 4.5 to 18 mg/kg, po for 7 days by immunohistochemistry analysis; details: dose 4.5-18 mg/kg, time 7.0 day
Rattus norvegicus [14] = test: Anti-asthmatic activity against ovalbumin-induced asthmatic Sprague-Dawley rat model assessed as reduction in NFkappaB protein expression in lungs at 4.5 to 18 mg/kg, po for 7 days by western blot analysis; details: dose 4.5-18 mg/kg, time 7.0 day
Rattus norvegicus [15] = test: Anti-asthmatic activity against ovalbumin-induced asthmatic Sprague-Dawley rat model assessed as reduction in AMCase mRNA expression in lungs at 4.5 to 18 mg/kg, po for 7 days by qRT-PCR analysis; details: dose 4.5-18 mg/kg, time 7.0 day
Rattus norvegicus [16] = test: Anti-asthmatic activity against ovalbumin-induced asthmatic Sprague-Dawley rat model assessed as reduction in CCL11 mRNA expression in lungs at 4.5 to 18 mg/kg, po for 7 days by qRT-PCR analysis; details: dose 4.5-18 mg/kg, time 7.0 day
Rattus norvegicus [17] = test: Anti-asthmatic activity against ovalbumin-induced asthmatic Sprague-Dawley rat model assessed as reduction in CCR3 mRNA expression in lungs at 4.5 to 18 mg/kg, po for 7 days by qRT-PCR analysis; details: dose 4.5-18 mg/kg, time 7.0 day
Rattus norvegicus [18] = test: Anti-asthmatic activity against ovalbumin-induced asthmatic Sprague-Dawley rat model assessed as reduction in YM2 mRNA expression in lungs at 4.5 to 18 mg/kg, po for 7 days by qRT-PCR analysis; details: dose 4.5-18 mg/kg, time 7.0 day
Rattus norvegicus [19] = test: Anti-asthmatic activity against ovalbumin-induced asthmatic Sprague-Dawley rat model assessed as reduction in E-selectin mRNA expression in lungs at 4.5 to 18 mg/kg, po for 7 days by qRT-PCR analysis; details: dose 4.5-18 mg/kg, time 7.0 day

Measured: Activity

O=C(/C=C/c1ccc(O)c(O)c1)O[C@H](Cc1ccc(O)c(O)c1)C(=O)O
active: Rattus norvegicus [1] | Rattus norvegicus [2] | Rattus norvegicus [3] | Rattus norvegicus [4] | Rattus norvegicus [5] Dde | Rattus norvegicus [6] Dde | Rattus norvegicus [7] | Rattus norvegicus [8] | Rattus norvegicus [9] | Rattus norvegicus [10] | Rattus norvegicus [11] | Rattus norvegicus [12] | Rattus norvegicus [13] | Rattus norvegicus [14] | Rattus norvegicus [15] | Rattus norvegicus [16] | Rattus norvegicus [17] | Rattus norvegicus [18] | Rattus norvegicus [19]
